Results from paper PMC9817100, “Preclinical profiles of SKB264, a novel anti-TROP2 antibody conjugated to topoisomerase inhibitor, demonstrated promising antitumor efficacy compared to IMMU-132” (Frontiers in Oncology, 2022).
Read-outs that look alike come from different tables or passages of the source.

What was measured:
[1] = system: NCI-H23 (TROP2-); assay: cytotoxic assay (CellTiter-Glo, 72 h) NCI-H23 (parental); type: cell-based; details: Homo sapiens, read-out: IC50 cell growth inhibition
Description: (§1) Tumor cells were seeded on 96-well plates at the following concentrations: HCC1806 (3,000 cells per well), NCI-N87 (5,000 cells per well), BxPC-3 (2,000 cells per well), Calu-3 (8,000 cells per well), NCI-H23 (TROP2+, 3,000 cells per well), and NCI-H23 (parental, 3,000 cells per well). After overnight incubation, the diluted testing items were added respectively. After 72 h, cell viability was evaluated using a CellTiter-Glo Luminescent Cell Viability Assay (Promega Corp. Madison, WI), following the manufacturer’s instruction.

[2] = system: NCI-N87 (TROP2+); assay: cytotoxic assay (CellTiter-Glo, 72 h) NCI-N87; type: cell-based; details: Homo sapiens, read-out: IC50 cell growth inhibition
Description: as §1

[3] = system: HCC1806 xenograft; assay: PK-PD study, single dose, HCC1806 xenograft; type: in vivo, BALB/c nude mice; details: tumor; payload after single i.v. 3 mg/kg SKB264 (KL610023) or IMMU-132 (SN-38); HCC1806 tumor-bearing mice; mean, n = 5
Description: (§2) Phoenix WinNonlin 8.1 was used to calculate the PK parameters in the non-compartment model, including t 1/2, T max, C max, AUC0-t, and AUC0-∞. […] The half maximal effective concentration (EC50) and half maximal inhibitory concentration (IC50) were calculated using a nonlinear regression model with sigmoidal fitting. The in vitro antitumor activities of drugs were evaluated by a two-tailed paired t-test.

[4] = payload KL610023 PK in plasma of cynomolgus monkey (Table 5); type: in vivo; set-up: Vz_obs / Cl_obs: unit not given here; details: KL610023 administered, n=4, dose not given
Text: Since the metabolism of ADC is different from that of the toxic payload ([30], [31]), the linkage of SKB264 mAb can dramatically prolong the half-life of KL610023 as compared to KL610023 alone. Nevertheless, after being released from SKB264, KL610023 could be rapidly eliminated. […] Overall, the proprietary technology used in our study to construct SKB264 could ensure a more precise delivery process.

[5] = system: BXPC3 (TROP2+); assay: cytotoxic assay (CellTiter-Glo, 72 h) BxPC-3; type: cell-based; details: Homo sapiens, read-out: IC50 cell growth inhibition
Description: as §1

[6] = PK of SKB264 and KL610023 in cynomolgus monkeys (serum); type: in vivo; details: unconjugated KL610023 0.24 mg/kg single i.v. infusion, n = 6, mean ± SD
Description: The PK properties of SKB264 and Tab were determined by ELISA, for which the lower limit of quantitation was 7.813 ng/ml. The serum concentration of KL610023 was measured by a validated liquid chromatography tandem mass spectrometry (LC/MS-MS), for which the lower limit of quantitation was 0.100 ng/ml. A total of 24 cynomolgus monkeys were randomized into four groups (n = 3/sex/group). Groups #1, #2, and #3 were treated with 1, 3, and 10 mg/kg of SKB264, respectively, via 15 min i.v. infusion once. Group #4 received 0.24 mg/kg of unconjugated KL610023 via i.v. infusion once. The serum concentrations of SKB264, Tab, and KL610023 were continually measured up to 672 h post-dose.
as §2

[7] = system: Calu-3 (TROP2+); assay: cytotoxic assay (CellTiter-Glo, 72 h) Calu-3; type: cell-based; details: Homo sapiens, read-out: IC50 cell growth inhibition
Description: as §1

[8] = system: NCI-H23(TROP2+); assay: cytotoxic assay (CellTiter-Glo, 72 h) NCI-H23 (TROP2+); type: cell-based; details: Homo sapiens, read-out: IC50 cell growth inhibition
Description: as §1

[9] = system: HCC1806, NCI-N87, BxPC3, Calu3, NCI-H23 (TROP2+), NCI-H23 (parental); assay: cytotoxic assay, range over the six tumor cell lines; type: cell-based; details: Homo sapiens, read-out: IC50 values, range over six cell lines
Description: as §1
To evaluate the effect of SKB264 on tumor cell proliferation, in vitro growth inhibition of cancer cell lines was determined by CellTiter-Glo Luminescent Cell Viability Assay. Cancer cell lines, including HCC1806, NCI-N87, BxPC3, Calu3, and NCI-H23 (TROP2+), highly expressed TROP2, while NCI-H23 (parental) was TROP2-negative ( Figure 3 ). […] NCI-H23 (TROP2+) cells were more sensitive to SKB264 than parental cells (TROP2−). […] Taken together, after SKB264 endocytosed through its interaction with TROP2 on cell surface, the releasing free KL610023 can inhibit tumor cell proliferation.

[10] = system: HCC1806 (TROP2+); assay: cytotoxic assay (CellTiter-Glo, 72 h) HCC1806; type: cell-based, human; details: Homo sapiens
Description: as §1

[11] = tissue distribution after single i.v. injection in tumor-bearing nude mice; type: in vivo; details: [3H]KL610023 0.1 mg/100 µCi/kg single i.v.; HCC1806 xenografted nude mice
Description: A total of 96 female nude mice bearing human HCC1806 tumor cells were divided into 16 groups (n = 6 mice/group) according to body weights and tumor volumes. After receiving a single i.v. injection of [^3H]KL610023, at 0.083, 4, 24, and 72 h, as well as a single i.v. injection of [^3H-KL610023]SKB264, [^3H]SKB264-mAb, or [^3H-mAb]SKB264 at 1, 24, 168, and 336 h post-dosing, blood, tumor tissue, and 16 types of normal tissues were collected from the euthanized mice.
Plasma samples were directly quantified by liquid scintillation counting (LSC) without further manipulation; however, the blood and tissue samples were digested with 1N of KOH at 90°C prior to quantification by LSC. The […] (TRA) for blood, plasma, and tissues was converted to nanogram equivalent of [^3H]KL610023 or TRA (ng Eq./g).

[12] = metabolic related experiments (hepatic circulation); details: unlike SN-38
[13] = both sexes, cynomolgus monkey, in vivo, iv

With `CC[C@@]1(O)C(=O)OCc2c1cc1n(c2=O)Cc2c-1nc1ccccc1c2CCN(C(C)C)S(C)(=O)=O` [KL610023] the IC50 [1] was 2.14 nM, the IC50 [2] was 2.01 nM and the “AUC0-∞ of payload” value [3] was 1949 ng·h/g. The AUClast of payload [3] was 1903 ng·h/g, the AUC(0-inf) [4] was 97 ± 26.9 ng·h/mL and the AUC(0-t) [4] was 97 ± 26.7 ng·h/mL. The Cl_obs [4] was 535 ± 148, the Cmax [4] was 273 ± 54.4 ng/mL and the Vz_obs [4] was 1119 ± 548. It also gave a half-life [4] of 96 min, an IC50 [5] of 6 nM and a half-life ([6]; both sexes, cynomolgus monkey, in vivo, iv, 0.24 mg/kg) of 342 min. The AUC(0-inf) [6, 13] was 230 ± 43.9 ng·h/mL, the AUC(0-t) [6, 13] was 228 ± 44.2 ng·h/mL and the “t 1/2” value ([6]; 0.24 mg/kg) was 5.65 ± 2.53 h. It also gave an IC50 [7] of 1.36 nM, an IC50 [8] of 4.77 nM and an IC50 [9] of 1.36 to 6 nM. The IC50 ([10]; HCC1806 (TROP2+), 72 h, Figure 2D, read-out: IC50 cell growth inhibition) was 1.5 nM, the IC50 ([10]; HCC1806, payload comparison, Figure 7C, duplicates, read-out: IC50 inhibition of proliferation of HCC1806 cells) was 1.82 nM and the “distribution of total radioactivity” value [11] was “widely distributed in the tissues and organs that had more abundant blood flow”. The hepatic circulation [12] was “no hepatic circulation”.
